Patent US20230081426A1, “COMPOUNDS AND METHODS FOR KRAS MODULATION AND INDICATIONS THEREFOR” (Plexxikon Inc., priority 2020, published 2023)

How the values were obtained:
[1] = biological target: T1, G12V-mutant human KRAS (amino acid residues 1-188) (Homo sapiens, UniProt P01116, G12V); assay: KRAS Binding Competition Assay (AlphaScreen; biotinylated KRpep-2d analogue), G12V; details: geometric mean, read-out: KRAS GMean IC50 (uM) MUTATION: G12V
T1 construct: G12V-mutant human KRAS (amino acid residues 1-188) with FLAG tag was purified from E. coli; made in house; host or cells: E. coli

[2] = biological target: T2, G12D-mutant human KRAS (amino acid residues 1-188) (Homo sapiens, UniProt P01116, G12D); assay: KRAS Binding Disruption Assay (AlphaScreen; biotinylated KRpep-2d analogue or RAF1-RBD), G12D; details: KRAS G12D; geometric mean; read-out: KRAS GMean IC50 (uM) MUTATION: G12D
T2 construct: G12D or G12C-mutant human KRAS (amino acid residues 1-188) with FLAG tag; made in house; host or cells: E. coli
Procedure, shortened: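 Displacement format with mutant KRAS, biotinylated KRpep-2d analogue or RAF1-RBD (5-20 nM each) at pH 7.5 with 5 mM MgCl2.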

Oc1cc(-c2ccc3c(N4C[C@H]5CC[C@@H](C4)N5)nc(OCC45CCCN4CCC5)nc3c2Cl)c2ccccc2c1 [P-0003, 4-(4-((1R,5S)-3,8-diazabicyclo[3.2.1]octan-3-yl)-8-chloro-2-((tetrahydro-1H-pyrrolizin-7a(5H)-yl)methoxy)quinazolin-7-yl)naphthalen-2-ol]
IC50 [1]: 0.0001 to 10 µM | IC50 [2]: 0.0001 to 10 µM

CN1CC[C@@H](NS(=O)(=O)N2[C@@H]3CC[C@H]2CN(c2nc(OC[C@@H]4CCCN4C)nc4c(F)c(-c5cc(O)cc6ccccc56)ccc24)C3)C1 [P-0376, (1R,5S)-3-(8-fluoro-7-(3-hydroxynaphthalen-1-yl)-2-(((S)-1-methylpyrrolidin-2-yl)methoxy)quinazolin-4-yl)-N-((R)-1-methylpyrrolidin-3-yl)-3,8-diazabicyclo[3.2.1]octane-8-sulfonamide]
IC50 [1]: 0.0001 to 10 µM | IC50 [2]: 0.0001 to 10 µM

Cc1cccc2c1N(c1ccc3c(N4C[C@H]5CC[C@@H](C4)N5)nc(OCC45CCCN4CCC5)nc3c1F)CC(O)C2 (stereo partly drawn) [P-0454, 1-(4-((1R,5S)-3,8-diazabicyclo[3.2.1]octan-3-yl)-8-fluoro-2-((tetrahydro-1H-pyrrolizin-7a(5H)-yl)methoxy)quinazolin-7-yl)-8-methyl-1,2,3,4-tetrahydroquinolin-3-ol]
IC50 [1]: 100 to 1000 µM | IC50 [2]: 0.0001 to 10 µM

CNC(=O)CCOc1nc(N2C[C@H]3CC[C@@H](C2)N3)c2ccc(-c3cc(O)cc4ccccc34)c(F)c2n1 [P-0616, 3-((4-((1R,5S)-3,8-diazabicyclo[3.2.1]octan-3-yl)-8-fluoro-7-(3-hydroxynaphthalen-1-yl)quinazolin-2-yl)oxy)-N-methylpropanamide]
IC50 [1]: 10 to 100 µM | IC50 [2]: 0.0001 to 10 µM

CN1CCC[C@H]1COc1nc(N2C[C@H]3CC[C@@H](C2)N3)c2ccc(-c3cc(O)cc(C(F)(F)F)c3)cc2n1 [P-0179, 3-(4-((1R,5S)-3,8-diazabicyclo[3.2.1]octan-3-yl)-2-(((S)-1-methylpyrrolidin-2-yl)methoxy)quinazolin-7-yl)-5-(trifluoromethyl)phenol]
IC50 [1]: 100 to 1000 µM | IC50 [2]: 10 to 100 µM

CN1CCC[C@H]1COc1nc(N2C[C@H]3CC[C@@H](C2)N3CC(=O)C2CCOC2)c2ccc(-c3cc(O)cc4ccccc34)c(F)c2n1 (stereo partly drawn) [P-0278, 2-((1R,5S)-3-(8-fluoro-7-(3-hydroxynaphthalen-1-yl)-2-(((S)-1-methylpyrrolidin-2-yl)methoxy)quinazolin-4-yl)-3,8-diazabicyclo[3.2.1]octan-8-yl)-1-(tetrahydrofuran-3-yl)ethan-1-one]
IC50 [1]: 10 to 100 µM | IC50 [2]: 0.0001 to 10 µM

CN1CCC[C@H]1COc1nc(N2[C@@H]3CC[C@H]2CN(C(=O)Cc2cnn(C)c2)C3)c2ccc(-c3cc(O)cc4ccccc34)cc2n1 [P-0228, 1-((1R,5S)-8-(7-(3-hydroxynaphthalen-1-yl)-2-(((S)-1-methylpyrrolidin-2-yl)methoxy)quinazolin-4-yl)-3,8-diazabicyclo[3.2.1]octan-3-yl)-2-(1-methyl-1H-pyrazol-4-yl)ethan-1-one]
IC50 [1]: 100 to 1000 µM | IC50 [2]: 10 to 100 µM

O=C(NC1CCCC1)N1[C@@H]2CC[C@H]1CN(c1nc(OCC34CCCN3CCC4)nc3cc(-c4cc(O)cc5ccccc45)ccc13)C2 [P-0075, (1R,5S)-N-cyclopentyl-3-(7-(3-hydroxynaphthalen-1-yl)-2-((tetrahydro-1H-pyrrolizin-7a(5H)-yl)methoxy)quinazolin-4-yl)-3,8-diazabicyclo[3.2.1]octane-8-carboxamide]
IC50 [1]: 0.0001 to 10 µM | IC50 [2]: 0.0001 to 10 µM

CN1CCN(CCNC(=O)N2C[C@H]3CC[C@@H](C2)N3c2nc(OC[C@@H]3CCCN3C)nc3cc(-c4cc(O)cc5ccccc45)ccc23)CC1 [P-0209, (1R,5S)-8-(7-(3-hydroxynaphthalen-1-yl)-2-(((S)-1-methylpyrrolidin-2-yl)methoxy)quinazolin-4-yl)-N-(2-(4-methylpiperazin-1-yl)ethyl)-3,8-diazabicyclo[3.2.1]octane-3-carboxamide]
IC50 [1]: 10 to 100 µM | IC50 [2]: 10 to 100 µM

CN(C)c1ccc(CCc2nc(N3C[C@H]4CC[C@@H](C3)N4)c3cc(Cl)c(-c4c(O)cccc4F)c(F)c3n2)cc1 [P-0326, 2-(4-((1R,5S)-3,8-diazabicyclo[3.2.1]octan-3-yl)-6-chloro-2-(4-(dimethylamino)phenethyl)-8-fluoroquinazolin-7-yl)-3-fluorophenol]
IC50 [1]: 0.0001 to 10 µM | IC50 [2]: 0.0001 to 10 µM

O=C(c1c[nH]c(=O)[nH]c1=O)N1[C@@H]2CC[C@H]1CN(c1nc(OCC34CCCN3CCC4)nc3cc(-c4cc(O)cc5ccccc45)ccc13)C2 [P-0108, 5-((1R,5S)-3-(7-(3-hydroxynaphthalen-1-yl)-2-((tetrahydro-1H-pyrrolizin-7a(5H)-yl)methoxy)quinazolin-4-yl)-3,8-diazabicyclo[3.2.1]octane-8-carbonyl)pyrimidine-2,4(1H,3H)-dione]
IC50 [1]: 0.0001 to 10 µM | IC50 [2]: 0.0001 to 10 µM

CN1CCC[C@H]1COc1nc(N2CC3COCC(C2)N3)c2cc(Cl)c(-c3cc(O)cc4ccccc34)c(F)c2n1 [P-0357, 4-(4-(3-oxa-7,9-diazabicyclo[3.3.1]nonan-7-yl)-6-chloro-8-fluoro-2-(((S)-1-methylpyrrolidin-2-yl)methoxy)quinazolin-7-yl)naphthalen-2-ol]
IC50 [1]: 0.0001 to 10 µM | IC50 [2]: 0.0001 to 10 µM

NS(=O)(=O)C1(C(=O)N2[C@@H]3CC[C@H]2CN(c2nc(OCC45CCCN4CCC5)nc4c(F)c(-c5cc(O)cc6ccccc56)ccc24)C3)CC1 [P-0452, 1-((1R,5S)-3-(8-fluoro-7-(3-hydroxynaphthalen-1-yl)-2-((tetrahydro-1H-pyrrolizin-7a(5H)-yl)methoxy)quinazolin-4-yl)-3,8-diazabicyclo[3.2.1]octane-8-carbonyl)cyclopropane-1-sulfonamide]
IC50 [1]: 0.0001 to 10 µM | IC50 [2]: 0.0001 to 10 µM

O=C(NCCN1CCOCC1)N1[C@@H]2CC[C@H]1CN(c1nc(OCC34CCCN3CCC4)nc3cc(-c4cc(O)cc5ccccc45)ccc13)C2 [P-0029, (1R,5S)-3-(7-(3-hydroxynaphthalen-1-yl)-2-((tetrahydro-1H-pyrrolizin-7a(5H)-yl)methoxy)quinazolin-4-yl)-N-(2-morpholinoethyl)-3,8-diazabicyclo[3.2.1]octane-8-carboxamide]
IC50 [1]: 0.0001 to 10 µM | IC50 [2]: 0.0001 to 10 µM

Cc1cccc2cccc(-c3ccc4c(N5C[C@H]6CC[C@@H](C5)N6)nc(OC[C@@H]5CCCN5C)nc4c3F)c12 [P-0465, 4-((1R,5S)-3,8-diazabicyclo[3.2.1]octan-3-yl)-8-fluoro-7-(8-methylnaphthalen-1-yl)-2-(((S)-1-methylpyrrolidin-2-yl)methoxy)quinazoline]
IC50 [1]: 10 to 100 µM | IC50 [2]: 0.0001 to 10 µM

CN1CCN(CCCC(=O)N2C3COCC2CN(c2nc(OC[C@@H]4CCCN4C)nc4c(F)c(-c5cc(O)cc6ccccc56)ccc24)C3)CC1 [P-0252, 1-(7-(8-fluoro-7-(3-hydroxynaphthalen-1-yl)-2-(((S)-1-methylpyrrolidin-2-yl)methoxy)quinazolin-4-yl)-3-oxa-7,9-diazabicyclo[3.3.1]nonan-9-yl)-4-(4-methylpiperazin-1-yl)butan-1-one]
IC50 [1]: 10 to 100 µM | IC50 [2]: 10 to 100 µM

O=C(NC1CCNC1)N1[C@@H]2CC[C@H]1CN(c1nc(OCC34CCCN3CCC4)nc3cc(-c4cc(O)cc5ccccc45)ccc13)C2 (stereo partly drawn) [P-0097, (1R,5S)-3-(7-(3-hydroxynaphthalen-1-yl)-2-((tetrahydro-1H-pyrrolizin-7a(5H)-yl)methoxy)quinazolin-4-yl)-N-(pyrrolidin-3-yl)-3,8-diazabicyclo[3.2.1]octane-8-carboxamide]
IC50 [1]: 0.0001 to 10 µM | IC50 [2]: 0.0001 to 10 µM

Cc1cccc(N)c1-c1ccc2c(N3[C@@H]4CC[C@H]3CNC4)nc(OC[C@@H]3CCCN3C)nc2c1 [P-0291, 2-(4-((1R,5S)-3,8-diazabicyclo[3.2.1]octan-8-yl)-2-(((S)-1-methylpyrrolidin-2-yl)methoxy)quinazolin-7-yl)-3-methylaniline]
IC50 [1]: 10 to 100 µM | IC50 [2]: 10 to 100 µM

CN1CCN(C(=O)CN2C[C@H]3CC[C@@H](C2)N3c2nc(OC[C@@H]3CCCN3C)nc3cc(-c4cc(O)cc5ccccc45)ccc23)CC1 [P-0277, 2-((1R,5S)-8-(7-(3-hydroxynaphthalen-1-yl)-2-(((S)-1-methylpyrrolidin-2-yl)methoxy)quinazolin-4-yl)-3,8-diazabicyclo[3.2.1]octan-3-yl)-1-(4-methylpiperazin-1-yl)ethan-1-one]
IC50 [1]: 10 to 100 µM | IC50 [2]: 0.0001 to 10 µM

O=C(O)CC(=O)N1[C@@H]2CC[C@H]1CN(c1nc(OCC34CCCN3CCC4)nc3c(F)c(-c4cc(O)cc5ccccc45)ccc13)C2 [P-0353, 3-((1R,5S)-3-(8-fluoro-7-(3-hydroxynaphthalen-1-yl)-2-((tetrahydro-1H-pyrrolizin-7a(5H)-yl)methoxy)quinazolin-4-yl)-3,8-diazabicyclo[3.2.1]octan-8-yl)-3-oxopropanoic acid]
IC50 [1]: 0.0001 to 10 µM | IC50 [2]: 0.0001 to 10 µM

CC(=O)Nc1ccc(F)c(-c2ccc3c(N4C[C@H]5CC[C@@H](C4)N5)nc(OC[C@@H]4CCCN4C)nc3c2)c1 [P-0167, N-(3-(4-((1R,5S)-3,8-diazabicyclo[3.2.1]octan-3-yl)-2-(((S)-1-methylpyrrolidin-2-yl)methoxy)quinazolin-7-yl)-4-fluorophenyl)acetamide]
IC50 [1]: 100 to 1000 µM | IC50 [2]: 100 to 1000 µM

COc1cccc(F)c1-c1c(Cl)cc2c(N3C[C@H]4CC[C@@H](C3)N4)nc(OC3CCN(C)CC3)nc2c1F [P-0330, 4-((1R,5S)-3,8-diazabicyclo[3.2.1]octan-3-yl)-6-chloro-8-fluoro-7-(2-fluoro-6-methoxyphenyl)-2-((1-methylpiperidin-4-yl)oxy)quinazoline]
IC50 [1]: 10 to 100 µM | IC50 [2]: 0.0001 to 10 µM
